Test results from ChEMBL document CHEMBL1201862, “PubChem BioAssay data set” (2004).
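The compound was tested at five concentrations on cells cultured in 96-well plates, with a 48-hour exposure period. The concentration for 50% growth inhibition is given as GI50.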 Active and inactive are the calls of the source. Rule as the data show it: active = GI50 up to about 1.1 µM and inactive = higher.

Tests used:
Assay in all cases: NCI anticancer screen, dose series, 48 h
KM-20L2 = tested on: KM-20L2
LXFL 529 = tested on: LXFL 529
XF498 = tested on: XF498
SNB-78 = tested on: SNB-78
DMS-114 = tested on: DMS-114
M19-MEL = tested on: M19-MEL
RXF 631 = tested on: RXF 631
DMS-273 = tested on: DMS-273
HOP-18 = tested on: HOP-18

Measured: GI50

CN(C)CC(/C(Cc1ccccc1)=N\NC(=O)C[n+]1ccccc1)c1ccccc1 (stereo not drawn)
inactive: KM-20L2 > 100 µM | LXFL 529 > 100 µM | XF498 > 100 µM | SNB-78 53.2 µM | DMS-114 > 100 µM | M19-MEL > 100 µM | RXF 631 > 100 µM | DMS-273 38.8 µM | HOP-18 > 100 µM

CC(C)CCCC(C)[C@H]1CCC2[C@@H]3CCC4Nc5c(cnn5-c5ccccc5)C[C@]4(C)C3CC[C@@]21C (stereo partly drawn)
inactive: KM-20L2 13.1 µM | LXFL 529 24.3 µM | XF498 15.3 µM | SNB-78 18.7 µM | DMS-114 52.8 µM | M19-MEL 26.1 µM | RXF 631 13.1 µM | DMS-273 2.72 µM | HOP-18 > 100 µM
